Assay results: patent publication US7074789B2, “Kinase inhibitors” (Amgen Inc., priority 1999, dated 2006)

Tests used:
Assay type in all cases: biochemical
IGFR-1 = biological target: T1, IGFR-1 (Homo sapiens, UniProt P08069); assay: Kinase inhibition assay (33P transfer), IGFR-1; details: Table 2, kinase inhibition class
T1 construct: Kinases are expressed as either kinase domains or full length constructs; made in house

EPHB4 = biological target: T2, EPHB4 (Homo sapiens, UniProt P54760); assay: Kinase inhibition assay (33P transfer), EPHB4; details: read-out: EPHB4-1
T2 construct: Kinases are expressed as either kinase domains or full length constructs; made in house
T2 sequence (P54760 16-987): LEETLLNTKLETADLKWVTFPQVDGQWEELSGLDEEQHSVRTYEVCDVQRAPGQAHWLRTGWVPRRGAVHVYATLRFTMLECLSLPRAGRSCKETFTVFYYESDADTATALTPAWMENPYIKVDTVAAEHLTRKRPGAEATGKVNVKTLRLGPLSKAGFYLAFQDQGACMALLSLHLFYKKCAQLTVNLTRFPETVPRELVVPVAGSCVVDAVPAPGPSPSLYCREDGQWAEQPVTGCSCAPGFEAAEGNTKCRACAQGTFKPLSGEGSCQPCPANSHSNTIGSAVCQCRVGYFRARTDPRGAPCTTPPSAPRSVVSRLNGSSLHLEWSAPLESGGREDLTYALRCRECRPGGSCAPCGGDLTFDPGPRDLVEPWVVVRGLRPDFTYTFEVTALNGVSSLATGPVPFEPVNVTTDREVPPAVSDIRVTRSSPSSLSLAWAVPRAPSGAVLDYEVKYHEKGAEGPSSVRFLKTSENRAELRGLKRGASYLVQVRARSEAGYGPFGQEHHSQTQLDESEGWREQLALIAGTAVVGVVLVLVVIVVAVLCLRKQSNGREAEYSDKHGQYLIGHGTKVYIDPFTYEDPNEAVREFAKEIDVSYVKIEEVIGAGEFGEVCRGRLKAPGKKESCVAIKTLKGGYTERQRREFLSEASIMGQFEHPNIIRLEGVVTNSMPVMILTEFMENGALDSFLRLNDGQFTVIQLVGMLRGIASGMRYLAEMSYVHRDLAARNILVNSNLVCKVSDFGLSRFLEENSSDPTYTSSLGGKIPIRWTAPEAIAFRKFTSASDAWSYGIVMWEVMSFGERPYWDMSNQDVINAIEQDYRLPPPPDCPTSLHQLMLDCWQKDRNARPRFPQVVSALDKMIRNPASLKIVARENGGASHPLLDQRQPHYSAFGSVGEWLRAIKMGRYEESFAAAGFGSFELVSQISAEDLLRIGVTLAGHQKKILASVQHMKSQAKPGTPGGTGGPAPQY

Zap-70 = biological target: T3, Zap-70 (Homo sapiens, UniProt P43403); assay: Kinase inhibition assay (33P transfer), Zap-70; details: Table 3; read-out: Zap-1
T3 construct: Kinases are expressed as either kinase domains or full length constructs; made in house
T3 sequence (P43403 1-619): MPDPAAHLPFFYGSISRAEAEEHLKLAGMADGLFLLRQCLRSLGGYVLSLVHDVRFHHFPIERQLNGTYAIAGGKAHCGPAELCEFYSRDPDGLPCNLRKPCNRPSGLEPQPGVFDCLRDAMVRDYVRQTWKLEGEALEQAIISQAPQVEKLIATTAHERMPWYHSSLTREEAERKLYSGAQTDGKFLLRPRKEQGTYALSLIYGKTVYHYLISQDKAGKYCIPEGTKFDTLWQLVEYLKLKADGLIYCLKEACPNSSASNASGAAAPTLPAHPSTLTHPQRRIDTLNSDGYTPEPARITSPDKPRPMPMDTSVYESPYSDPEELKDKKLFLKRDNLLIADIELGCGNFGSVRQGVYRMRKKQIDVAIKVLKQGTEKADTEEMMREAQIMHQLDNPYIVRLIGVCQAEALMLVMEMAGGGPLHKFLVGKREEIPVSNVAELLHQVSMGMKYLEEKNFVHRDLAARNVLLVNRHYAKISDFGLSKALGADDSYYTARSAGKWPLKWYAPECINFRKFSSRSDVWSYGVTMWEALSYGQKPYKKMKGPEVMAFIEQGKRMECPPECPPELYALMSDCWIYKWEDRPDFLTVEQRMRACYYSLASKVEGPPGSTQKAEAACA
Outline: (§1)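 GST/His-tagged kinase (domain or full length; E. coli or baculovirus) + [33P]ATP on plates coated with poly(Glu,Tyr) 4:1 or poly(Arg,Ser) 3:1; incubate, wash 0.5% H3PO4, add scintillant, count.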

c-Met = biological target: T4, c-Met (Homo sapiens, UniProt P08581); assay: Kinase inhibition assay (33P transfer), c-Met; details: Table 2, kinase inhibition class; read-out: Met-1
T4 construct: Kinases are expressed as either kinase domains or full length constructs; made in house
Outline: (§2)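 IC50: inhibitor concentration lowering 33P incorporation into immobilised substrate by 50%. Label transferred from ATP to poly(Glu,Tyr) 4:1 or poly(Arg,Ser) 3:1 is measured after a 0.5% phosphoric acid wash by liquid scintillation.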

EGFR = biological target: T5, EGFR (Homo sapiens, UniProt P00533); assay: Kinase inhibition assay (33P transfer), EGFR; details: Table 2, kinase inhibition class; read-out: EGFR-1
T5 construct: Kinases are expressed as either kinase domains or full length constructs; made in house
Outline: as §2

Kdr = biological target: T6, Kdr (Homo sapiens, UniProt P35968); assay: Kinase inhibition assay (33P transfer), Kdr; details: Table 3; read-out: KDR-1
T6 construct: Kinases are expressed as either kinase domains or full length constructs; made in house
Outline: as §1

AKT = biological target: T7, AKT (Homo sapiens, UniProt Q9Y243); assay: Kinase inhibition assay (33P transfer), AKT; details: Table 2, kinase inhibition class; read-out: AKT3-1
T7 construct: Kinases are expressed as either kinase domains or full length constructs; made in house
Outline: as §1

Lck = biological target: T8, Lck (Homo sapiens, UniProt P06239); assay: Kinase inhibition assay (33P transfer), Lck; details: Table 3; read-out: Lck-1
T8 construct: Kinases are expressed as either kinase domains or full length constructs; made in house
Outline: as §1

Itk = biological target: T9, Itk (Homo sapiens, UniProt Q08881); assay: Kinase inhibition assay (33P transfer), Itk; details: Table 3; read-out: Itk-1
T9 construct: Kinases are expressed as either kinase domains or full length constructs; made in house
T9 sequence (Q08881 1-620): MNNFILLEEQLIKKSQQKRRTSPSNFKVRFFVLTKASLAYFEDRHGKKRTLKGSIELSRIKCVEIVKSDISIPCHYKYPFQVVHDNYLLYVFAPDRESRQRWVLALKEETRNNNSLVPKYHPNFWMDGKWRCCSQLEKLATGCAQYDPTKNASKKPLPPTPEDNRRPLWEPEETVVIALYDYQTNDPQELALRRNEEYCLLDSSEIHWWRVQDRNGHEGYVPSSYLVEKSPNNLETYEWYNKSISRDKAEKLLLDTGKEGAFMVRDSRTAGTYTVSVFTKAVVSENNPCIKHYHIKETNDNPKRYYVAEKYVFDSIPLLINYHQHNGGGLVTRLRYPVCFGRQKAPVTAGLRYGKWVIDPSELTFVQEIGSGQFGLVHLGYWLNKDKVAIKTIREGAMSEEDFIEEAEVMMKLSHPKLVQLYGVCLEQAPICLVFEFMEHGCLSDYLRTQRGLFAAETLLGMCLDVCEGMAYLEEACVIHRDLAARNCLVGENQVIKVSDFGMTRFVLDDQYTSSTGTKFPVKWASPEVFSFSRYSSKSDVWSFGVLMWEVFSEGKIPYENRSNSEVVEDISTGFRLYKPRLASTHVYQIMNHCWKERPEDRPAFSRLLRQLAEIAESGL
Outline: as §2

T8 sequence (P06239 whole entry, species assumed, the tested form may be a part): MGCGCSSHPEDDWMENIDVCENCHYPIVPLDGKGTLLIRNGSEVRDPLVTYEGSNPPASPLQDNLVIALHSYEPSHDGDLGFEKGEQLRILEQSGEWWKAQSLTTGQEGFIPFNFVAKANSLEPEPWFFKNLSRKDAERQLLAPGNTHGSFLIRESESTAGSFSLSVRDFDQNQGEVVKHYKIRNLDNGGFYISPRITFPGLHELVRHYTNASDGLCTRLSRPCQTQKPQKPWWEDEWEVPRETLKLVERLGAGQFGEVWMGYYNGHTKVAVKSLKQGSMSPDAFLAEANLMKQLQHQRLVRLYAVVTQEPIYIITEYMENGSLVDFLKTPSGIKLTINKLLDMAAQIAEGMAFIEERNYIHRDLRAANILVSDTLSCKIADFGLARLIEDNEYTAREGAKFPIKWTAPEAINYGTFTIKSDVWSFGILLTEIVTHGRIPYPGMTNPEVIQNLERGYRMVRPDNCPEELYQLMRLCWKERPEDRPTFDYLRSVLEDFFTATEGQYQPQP
T5 sequence (P00533 25-1210, species assumed): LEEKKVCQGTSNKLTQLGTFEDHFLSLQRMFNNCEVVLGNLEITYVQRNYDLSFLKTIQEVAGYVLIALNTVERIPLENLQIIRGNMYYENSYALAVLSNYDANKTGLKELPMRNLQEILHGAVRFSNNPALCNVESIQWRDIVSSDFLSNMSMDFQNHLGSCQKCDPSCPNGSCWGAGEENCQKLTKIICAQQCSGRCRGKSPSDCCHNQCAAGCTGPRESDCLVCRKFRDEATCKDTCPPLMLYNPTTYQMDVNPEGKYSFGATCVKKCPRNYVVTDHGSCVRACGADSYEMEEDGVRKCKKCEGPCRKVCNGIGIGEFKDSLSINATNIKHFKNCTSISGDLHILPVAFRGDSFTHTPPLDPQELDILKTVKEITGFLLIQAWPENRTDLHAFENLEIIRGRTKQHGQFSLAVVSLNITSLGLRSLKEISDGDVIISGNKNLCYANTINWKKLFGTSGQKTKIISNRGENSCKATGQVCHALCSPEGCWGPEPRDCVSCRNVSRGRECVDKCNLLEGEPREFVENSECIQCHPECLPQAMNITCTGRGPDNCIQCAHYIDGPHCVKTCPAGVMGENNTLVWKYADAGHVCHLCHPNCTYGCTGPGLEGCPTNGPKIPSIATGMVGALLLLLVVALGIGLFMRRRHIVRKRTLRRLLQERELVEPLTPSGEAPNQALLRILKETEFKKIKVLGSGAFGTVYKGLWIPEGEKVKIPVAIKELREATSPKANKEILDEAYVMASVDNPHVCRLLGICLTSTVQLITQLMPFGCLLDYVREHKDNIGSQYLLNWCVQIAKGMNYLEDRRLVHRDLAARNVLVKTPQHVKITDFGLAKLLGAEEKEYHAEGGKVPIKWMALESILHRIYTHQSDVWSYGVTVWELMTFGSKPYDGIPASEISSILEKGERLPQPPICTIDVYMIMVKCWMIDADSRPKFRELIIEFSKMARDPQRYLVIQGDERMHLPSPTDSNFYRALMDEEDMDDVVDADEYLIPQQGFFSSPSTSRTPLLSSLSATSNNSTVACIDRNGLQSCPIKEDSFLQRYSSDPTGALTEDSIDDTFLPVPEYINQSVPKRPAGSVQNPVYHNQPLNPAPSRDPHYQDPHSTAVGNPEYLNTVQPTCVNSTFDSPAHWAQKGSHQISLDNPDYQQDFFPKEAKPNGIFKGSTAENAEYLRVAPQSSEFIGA
T7 sequence (Q9Y243 whole entry, the tested form may be a part): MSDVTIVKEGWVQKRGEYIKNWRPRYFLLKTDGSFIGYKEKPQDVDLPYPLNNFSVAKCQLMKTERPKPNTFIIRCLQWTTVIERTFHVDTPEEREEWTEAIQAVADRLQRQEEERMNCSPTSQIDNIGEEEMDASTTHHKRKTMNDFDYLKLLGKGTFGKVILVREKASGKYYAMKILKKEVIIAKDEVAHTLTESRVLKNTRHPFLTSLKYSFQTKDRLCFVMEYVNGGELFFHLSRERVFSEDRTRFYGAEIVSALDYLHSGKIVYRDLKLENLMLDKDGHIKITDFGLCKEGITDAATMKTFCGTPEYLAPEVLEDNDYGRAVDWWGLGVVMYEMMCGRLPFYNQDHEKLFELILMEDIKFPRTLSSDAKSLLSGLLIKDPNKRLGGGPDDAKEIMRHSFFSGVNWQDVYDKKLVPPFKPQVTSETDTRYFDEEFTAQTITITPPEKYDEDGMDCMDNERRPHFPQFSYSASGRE
T1 sequence (P08069 31-1367): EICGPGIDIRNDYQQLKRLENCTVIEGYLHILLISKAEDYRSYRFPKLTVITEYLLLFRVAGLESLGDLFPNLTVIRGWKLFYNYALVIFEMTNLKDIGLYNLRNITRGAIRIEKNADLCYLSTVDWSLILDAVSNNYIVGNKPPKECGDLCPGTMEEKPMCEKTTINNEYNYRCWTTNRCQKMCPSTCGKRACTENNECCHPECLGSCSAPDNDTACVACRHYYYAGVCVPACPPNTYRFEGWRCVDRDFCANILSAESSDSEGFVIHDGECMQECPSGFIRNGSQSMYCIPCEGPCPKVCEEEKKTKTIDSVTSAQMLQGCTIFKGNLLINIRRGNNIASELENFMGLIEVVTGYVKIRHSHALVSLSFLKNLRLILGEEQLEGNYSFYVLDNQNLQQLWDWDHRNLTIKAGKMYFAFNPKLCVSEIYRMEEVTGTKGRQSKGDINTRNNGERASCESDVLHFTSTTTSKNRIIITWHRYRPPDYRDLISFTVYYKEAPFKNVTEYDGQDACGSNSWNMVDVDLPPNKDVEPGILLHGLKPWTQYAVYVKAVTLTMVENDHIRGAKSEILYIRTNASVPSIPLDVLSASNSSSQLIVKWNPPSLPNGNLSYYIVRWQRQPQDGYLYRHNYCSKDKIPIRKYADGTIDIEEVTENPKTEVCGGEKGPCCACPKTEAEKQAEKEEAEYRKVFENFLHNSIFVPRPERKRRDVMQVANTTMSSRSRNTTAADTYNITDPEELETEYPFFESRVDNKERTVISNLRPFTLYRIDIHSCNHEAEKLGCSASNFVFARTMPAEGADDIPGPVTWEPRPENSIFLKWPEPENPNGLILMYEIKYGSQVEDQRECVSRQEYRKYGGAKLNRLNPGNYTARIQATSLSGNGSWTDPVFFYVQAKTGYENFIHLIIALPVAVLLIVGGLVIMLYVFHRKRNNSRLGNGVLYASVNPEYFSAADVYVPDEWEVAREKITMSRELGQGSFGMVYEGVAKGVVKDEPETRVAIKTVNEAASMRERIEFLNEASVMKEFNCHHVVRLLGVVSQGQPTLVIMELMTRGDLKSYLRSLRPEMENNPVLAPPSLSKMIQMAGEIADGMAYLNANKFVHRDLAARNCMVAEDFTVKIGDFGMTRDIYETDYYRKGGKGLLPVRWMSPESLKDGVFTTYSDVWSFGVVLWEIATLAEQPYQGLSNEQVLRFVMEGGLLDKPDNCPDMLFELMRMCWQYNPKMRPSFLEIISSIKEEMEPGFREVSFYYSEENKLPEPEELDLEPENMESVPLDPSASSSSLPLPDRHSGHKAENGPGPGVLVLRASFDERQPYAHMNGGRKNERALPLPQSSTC
T4 sequence (P08581 25-1390): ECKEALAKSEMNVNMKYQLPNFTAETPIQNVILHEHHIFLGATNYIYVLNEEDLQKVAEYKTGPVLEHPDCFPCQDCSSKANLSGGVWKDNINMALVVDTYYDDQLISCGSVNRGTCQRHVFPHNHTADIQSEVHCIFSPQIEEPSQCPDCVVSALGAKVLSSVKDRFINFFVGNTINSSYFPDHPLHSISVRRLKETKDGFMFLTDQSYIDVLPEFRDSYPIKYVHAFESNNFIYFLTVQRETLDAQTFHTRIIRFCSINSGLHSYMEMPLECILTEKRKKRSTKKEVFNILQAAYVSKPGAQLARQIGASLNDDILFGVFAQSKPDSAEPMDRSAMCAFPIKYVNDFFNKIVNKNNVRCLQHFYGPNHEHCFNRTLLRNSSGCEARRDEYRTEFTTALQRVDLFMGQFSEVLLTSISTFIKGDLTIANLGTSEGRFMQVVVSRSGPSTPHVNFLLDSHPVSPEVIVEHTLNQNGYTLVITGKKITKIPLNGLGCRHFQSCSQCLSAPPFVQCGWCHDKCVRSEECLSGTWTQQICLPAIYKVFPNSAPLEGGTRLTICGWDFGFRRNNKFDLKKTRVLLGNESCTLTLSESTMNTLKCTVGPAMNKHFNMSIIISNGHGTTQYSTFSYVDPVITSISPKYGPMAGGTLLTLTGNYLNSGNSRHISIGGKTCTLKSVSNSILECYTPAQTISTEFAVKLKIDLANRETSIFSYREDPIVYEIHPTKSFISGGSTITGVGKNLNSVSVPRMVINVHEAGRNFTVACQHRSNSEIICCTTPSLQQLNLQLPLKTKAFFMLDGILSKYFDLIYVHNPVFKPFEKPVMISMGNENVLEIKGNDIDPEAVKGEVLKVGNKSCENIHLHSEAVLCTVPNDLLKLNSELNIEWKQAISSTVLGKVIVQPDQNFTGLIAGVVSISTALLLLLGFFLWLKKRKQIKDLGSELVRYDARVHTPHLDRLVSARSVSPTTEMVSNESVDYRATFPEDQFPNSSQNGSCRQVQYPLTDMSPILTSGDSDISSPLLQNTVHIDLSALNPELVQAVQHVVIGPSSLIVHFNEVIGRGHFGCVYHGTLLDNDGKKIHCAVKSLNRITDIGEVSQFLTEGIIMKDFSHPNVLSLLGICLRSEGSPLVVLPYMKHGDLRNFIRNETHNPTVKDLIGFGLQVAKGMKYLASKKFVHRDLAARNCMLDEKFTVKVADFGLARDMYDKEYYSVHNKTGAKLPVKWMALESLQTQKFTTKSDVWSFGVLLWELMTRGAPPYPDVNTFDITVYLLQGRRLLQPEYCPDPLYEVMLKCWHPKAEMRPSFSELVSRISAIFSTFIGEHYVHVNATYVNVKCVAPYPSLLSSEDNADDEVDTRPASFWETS

**Q.** What does the source list for COc1cc(Nc2ncnc(Nc3ccncc3)n2)cc(OC)c1OC [Compound 39]?
**A.** IC50 (IGFR-1): > 12.7 µM; IC50 (EPHB4): > 12.7 µM; IC50 (Zap-70): > 12.7 µM; IC50 (c-Met): > 12.7 µM; IC50 (EGFR): > 12.7 µM; IC50 (Kdr): > 12.7 µM; IC50 (AKT): > 12.7 µM; IC50 (Lck): > 12.7 µM; IC50 (Itk): > 12.7 µM

**Q.** With COc1cc(Nc2ncnc(Nc3ccccn3)n2)cc(OC)c1OC [Compound 40] as the compound, how does the IC50 (IGFR-1) read?
**A.** > 12.7 µM

**Q.** And the IC50 (EPHB4)?
**A.** > 12.7 µM

**Q.** What about the IC50 (Zap-70) of the same compound?
**A.** > 12.7 µM

**Q.** What about the IC50 (c-Met) of the same compound?
**A.** > 12.7 µM

**Q.** And the IC50 (EGFR)?
**A.** > 12.7 µM

**Q.** And the IC50 (Kdr)?
**A.** > 12.7 µM

**Q.** And the IC50 (AKT)?
**A.** > 12.7 µM

**Q.** And the IC50 (Lck)?
**A.** > 12.7 µM

**Q.** And the IC50 (Itk)?
**A.** > 12.7 µM

**Q.** What does the source list for COc1cc(Nc2ncnc(Nc3ccc(NC(=O)OC(C)(C)C)cc3)n2)cc(OC)c1OC [Compound 69]?
**A.** IC50 (IGFR-1): > 9.6 µM; IC50 (EPHB4): > 9.6 µM; IC50 (Zap-70): > 9.6 µM; IC50 (c-Met): > 9.6 µM; IC50 (EGFR): > 9.6 µM; IC50 (Kdr): 0.854 to 5.12 µM; IC50 (AKT): > 9.6 µM; IC50 (Lck): 0.854 to 5.12 µM; IC50 (Itk): > 9.6 µM

**Q.** With COc1cc(Nc2ncnc(Nc3cccc(OCc4ccccc4)c3)n2)cc(OC)c1OC [Compound 73] as the compound, how does the IC50 (IGFR-1) read?
**A.** > 9.79 µM

**Q.** What about the IC50 (EPHB4) of the same compound?
**A.** > 9.79 µM

**Q.** And the IC50 (Zap-70)?
**A.** > 9.79 µM

**Q.** What about the IC50 (c-Met) of the same compound?
**A.** > 9.79 µM

**Q.** What about the IC50 (EGFR) of the same compound?
**A.** > 9.79 µM

**Q.** And the IC50 (Kdr)?
**A.** > 9.79 µM

**Q.** And the IC50 (AKT)?
**A.** > 9.79 µM

**Q.** And the IC50 (Lck)?
**A.** > 9.79 µM

**Q.** What about the IC50 (Itk) of the same compound?
**A.** > 9.79 µM

**Q.** Which results are given for COc1cc(Nc2ncnc(-c3ccc(C)cc3)n2)cc(OC)c1OC [Compound 221]?
**A.** IC50 (IGFR-1): < 1.14 µM; IC50 (EPHB4): 1.14 to 6.81 µM; IC50 (Zap-70): > 12.8 µM; IC50 (c-Met): > 12.8 µM; IC50 (EGFR): > 12.8 µM; IC50 (Kdr): 1.14 to 6.81 µM; IC50 (AKT): > 12.8 µM; IC50 (Lck): > 12.8 µM; IC50 (Itk): > 12.8 µM
